The source of these data is patent US5399565A, “Pyrazolidinone CCK and gastrin antagonists and pharmaceutical formulations therof” (priority 1993, dated 1995).

Structures are written as SMILES. Where two headings read alike, the source gives them in different places.

One data set concerns the target T1, brain CCK receptor (Mus musculus, UniProt P56481).
T1 construct: from tissue; host or cells: forebrain membranes of male CF-1 mice
T1 sequence (P56481 1-453): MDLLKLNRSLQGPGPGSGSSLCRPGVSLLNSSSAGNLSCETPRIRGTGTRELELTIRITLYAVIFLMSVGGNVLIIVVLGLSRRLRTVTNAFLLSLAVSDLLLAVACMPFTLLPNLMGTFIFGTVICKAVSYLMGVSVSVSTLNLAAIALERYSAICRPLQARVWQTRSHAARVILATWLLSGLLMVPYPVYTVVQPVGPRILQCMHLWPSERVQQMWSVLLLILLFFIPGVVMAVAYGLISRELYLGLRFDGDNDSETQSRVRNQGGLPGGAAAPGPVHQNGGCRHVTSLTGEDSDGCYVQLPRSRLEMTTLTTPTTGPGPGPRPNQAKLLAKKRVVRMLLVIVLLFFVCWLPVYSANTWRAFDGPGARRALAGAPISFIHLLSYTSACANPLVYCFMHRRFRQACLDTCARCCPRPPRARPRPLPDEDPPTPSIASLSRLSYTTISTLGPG
In words: CCK receptor binding, mouse brain membranes (125I-CCK-8 sulfate).

Another data set in a line: pKa by titration. The following applies: first or only value; for pKa: 2:1 dmf:h2o, titration pKa.
Data set [1] has as its target T2, peripheral type CCK receptors in rat pancreas (Rattus norvegicus, UniProt P30551).
T2 construct: Pancreas was obtained from male Sprague-Dawley rats; from tissue; host or cells: pancreas membranes of male Sprague-Dawley rats
T2 sequence (P30551 1-444): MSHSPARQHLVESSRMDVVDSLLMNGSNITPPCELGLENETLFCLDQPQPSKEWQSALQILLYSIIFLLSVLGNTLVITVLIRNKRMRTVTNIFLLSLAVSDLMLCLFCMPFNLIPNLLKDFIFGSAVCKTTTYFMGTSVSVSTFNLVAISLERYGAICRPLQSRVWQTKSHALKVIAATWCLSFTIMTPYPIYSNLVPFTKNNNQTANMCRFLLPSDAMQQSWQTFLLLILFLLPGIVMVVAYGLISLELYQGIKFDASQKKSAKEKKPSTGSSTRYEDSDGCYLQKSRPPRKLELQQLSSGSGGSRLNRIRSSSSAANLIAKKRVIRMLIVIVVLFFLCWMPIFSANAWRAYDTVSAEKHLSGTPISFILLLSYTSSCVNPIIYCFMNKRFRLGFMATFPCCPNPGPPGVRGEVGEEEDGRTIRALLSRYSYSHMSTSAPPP
In words: Binding to peripheral type CCK receptors in rat pancreas (3H-L-364,718). The following applies: for inhibition at 10 µM: read-out: Pancreas Percent Inhibition; for IC50: rat pancreas. The essentials: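 Washed pancreatic membranes from male Sprague-Dawley rats (150-200 g) incubated 1 h at room temperature with 0.4-0.6 nM ³H-L-364,718 in 50 mM Tris pH 7.4, 5 mM MgCl2, bacitracin, 5 mM DTT. Bound radioactivity counted after filtration; nonspecific binding defined with 100 nM L-364,718; IC50 determined.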

The next data set addresses T3, gastrin receptor (Cavia porcellus, UniProt H0VZC5).
T3 construct: Guinea pig stomach fundus was obtained from male Hartley guinea pigs; from tissue; host or cells: stomach fundus mucosal membranes of male Hartley guinea pigs
T3 sequence (H0VZC5 1-426): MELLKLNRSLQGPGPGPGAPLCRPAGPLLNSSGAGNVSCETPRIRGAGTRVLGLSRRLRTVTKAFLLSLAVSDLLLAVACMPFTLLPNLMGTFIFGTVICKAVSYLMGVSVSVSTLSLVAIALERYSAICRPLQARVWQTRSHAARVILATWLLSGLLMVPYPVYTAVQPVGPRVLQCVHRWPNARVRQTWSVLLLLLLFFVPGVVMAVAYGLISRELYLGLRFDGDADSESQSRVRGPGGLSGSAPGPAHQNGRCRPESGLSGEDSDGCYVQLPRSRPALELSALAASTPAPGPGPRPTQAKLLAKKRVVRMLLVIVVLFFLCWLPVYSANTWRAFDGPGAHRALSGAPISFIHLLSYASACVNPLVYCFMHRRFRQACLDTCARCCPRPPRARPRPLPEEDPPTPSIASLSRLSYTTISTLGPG
In words: Gastrin binding to guinea pig stomach mucosal membranes (125I-gastrin I). The procedure:
The method used for gastrin binding to guinea pig stomach mucosal membranes was similar to that described by Takeuchi, Speir and Johnson (Am. J. Physiol. 237(3): E284-E294, 1979). Guinea pig stomach fundus was obtained from male Hartley guinea pigs, 300-350 g, and the mucosa was scraped off with a glass slide. The mucosa was homogenized in 50 mM Tris buffer, pH 7.4, containing 1 mM phenylmethanesulfonyl fluoride using a Dounce glass homogenizer, and the suspension was centrifuged at 40,000 g for 10 min. The resulting pellet was resuspended and centrifuged once more, the final pellet was then suspended in 100 ml assay buffer per 1 guinea pig stomach to give a protein concentration of 200-300 μg/200 μl. The assay buffer consisted of 50 mM Tris buffer, pH 7.4, 5 mM MgCl2, 0.14 mg/ml bacitracin, and 1 μg/ml each of leupeptin, chymostatin, aprotinin and pepstatin. Reagent volumes for the assay were the same as those used for CCK binding to brain membranes. The radioactive ligand was 20 pM ^125 I-gastrin I, from DuPont NEN (NEX-176). The samples were incubated 3 hours at room temperature and filtered and counted as described for CCK binding to brain membranes. Compound samples were prepared and IC-50 values were determined as described for the CCK-brain receptor binding. Non-specific binding was determined using 100 nM gastrin I (human synthetic from Sigma Chemical Co.).

Where [2] appears, read: mouse brain membranes, read-out: Brain IC50.
[3] abbreviates: guinea pig stomach mucosal membranes, read-out: Gastrin IC50.
Setting [4] is: Brain IC50, mouse brain membranes.

As usually defined, the inhibition is the change of the read-out against control, counted positive when it falls. For orientation: pKa means the pH at which an ionisable group is half protonated. Read a low pKa as a group that gives up its proton readily. On to `O=C1NN(C(=O)c2cccc(C(F)(F)F)c2)[C@@H](c2ccccc2)[C@@H]1c1ccccc1` (relative stereo) [Example 5], for which the inhibition at 10 µM stood at 77% on brain CCK receptor (at 10 μM, read-out: Brain Percent Inhibition) and 18% in data set [1] (at 10 μM). This compound displayed a pKa in “pKa by titration” of 7.15.
In general, IC50 refers to the midpoint of a concentration-inhibition curve. As for `O=C1NN(C(=O)Oc2ccc(Cl)cc2)[C@@H](c2ccccc2)[C@@H]1c1ccccc1` (relative stereo) [Example 6, 1-[(4-Chlorophenyl)oxycarbonyl]-4,5-diphenyl-3pyrazolidinone], the IC50 at brain CCK receptor (setting [2]) worked out at 4400 nM. The pKa in “pKa by titration” was 7.8. Also, the inhibition at 10 µM in data set [1] (at 10 μM) amounted to 15%.
With `C[C@@H](OC(=O)N1NC(=O)[C@@H](c2ccccc2)[C@@H]1c1ccccc1)c1ccccc1` (single isomer, unassigned) [Example 139B], in the data set “pKa by titration” (2:1 DMF:H2O, listed as Diastereomer B), the “titration pKa” value was determined as 8.6.
Consider `O=C1NN(C(=O)NCc2ccc(Cl)c(Cl)c2)[C@@H](c2ccccc2)[C@@H]1c1ccccc1` (relative stereo) [Example 7, 1-[(3,4-Dichlorobenzyl)aminocarbonyl]-4,5-diphenyl-3pyrazolidinone], for which the IC50 at brain CCK receptor (setting [2]) stood at 1100 nM. The compound also returned a pKa in “pKa by titration” of 8.4. Besides, the inhibition at 10 µM in data set [1] (at 10 μM) amounted to 81%.
Take `O=C1NN(C(=O)Nc2ccc(C(F)(F)F)cc2)[C@@H](c2ccccc2)[C@@H]1c1ccccc1` (relative stereo) [Example 16]: the values for the IC50 at brain CCK receptor (setting [2]) and at gastrin receptor (setting [3]) were 44 nM and 420 nM, respectively. Further, the inhibition at 10 µM in data set [1] (at 10 μM) is 62%.
Turning to `O=C1NN(C(=O)Nc2ccc(Br)cc2)[C@@H](c2cccc(Cl)c2Cl)[C@H]1c1ccccc1` (relative stereo) [Example 117], the IC50 at brain CCK receptor (setting [2]) worked out at 400 nM; on gastrin receptor (setting [3]), 1000 nM. The inhibition at 10 µM in data set [1] (at 10 μM) was 64%.
With `O=C1NN(C(=O)Nc2ccc(Br)cc2)C(c2ccccc2)C1c1cccc(Br)c1` (stereo not shown) [Example 127], the IC50 at brain CCK receptor (setting [2]) was 32 nM; on gastrin receptor (setting [3]), 210 nM. Also, in data set [1] (at 10 μM), the inhibition at 10 µM was 73%.
Take `O=C1NN(C(=O)Nc2ccc(C(F)(F)F)cc2)C(c2ccccc2)C1c1ccccc1Cl` (stereo not shown) [Example 130]: the results for the IC50 on brain CCK receptor (setting [4]) and at gastrin receptor were 12 nM and 100 nM, respectively. Besides, the inhibition at 10 µM in data set [1] (at 10 μM) was found to be 42%.
As for `NC(=O)c1cccc(C2C(c3ccccc3)C(=O)NN2C(=O)Nc2ccc(Br)cc2)c1` (stereo not shown) [Example 118], the IC50 amounted to 360 nM at brain CCK receptor (setting [2]) and 5200 nM on gastrin receptor (setting [3]). Besides, the inhibition at 10 µM in data set [1] (at 10 μM) was 41%.
Take `O=C1NN(C(=O)Nc2ccc(Br)cc2)[C@@H](c2ccccc2)[C@@H]1c1ccccc1` (relative stereo) [Example 20]: the results for the IC50 (at brain CCK receptor (setting [2]); on gastrin receptor (setting [3]); in data set [1]) were 31 nM, 490 nM and 11600 nM, respectively.
`CC(C)Oc1cccc(C2C(=O)NN(C(=O)Nc3ccc(Br)cc3)C2c2ccccc2)c1` (stereo not shown) [Example 124]: the IC50 came out at 150 nM on brain CCK receptor (setting [2]) and 730 nM at gastrin receptor (setting [3]). Further, in data set [1] (at 10 μM), the inhibition at 10 µM is 36%.
For `O=C1NN(C(=O)Nc2ccc3c(c2)CCC3)[C@H](c2ccccc2)[C@H]1c1ccccc1` (relative stereo) [Example 49], in that order: 43 nM, 250 nM and 40%.
With `COc1cccc(C2C(=O)NN(C(=O)Nc3ccc(Br)cc3)C2c2ccccc2)c1` (stereo not shown) [Example 123], the IC50 at brain CCK receptor (setting [2]) is 68 nM; at gastrin receptor (setting [3]), 690 nM. Also, the inhibition at 10 µM in data set [1] (at 10 μM) was 23%.
Compound `C[C@@H](OC(=O)N1NC(=O)[C@@H](c2ccccc2)[C@@H]1c1ccccc1)c1ccccc1` (single isomer, unassigned) [Example 139A] gave a pKa in “pKa by titration” of 8.7.
Consider `O=C1NN(C(=O)Nc2ccc(Cl)c(C(F)(F)F)c2)[C@@H](c2ccccc2)[C@@H]1c1ccccc1` (relative stereo) [Example 1, 1-[(4-Chloro-3-trifluoromethylphenyl)aminocarbonyl]-4,5-diphenyl-3-pyrazolidinone], for which the IC50 was found to be 22 nM at brain CCK receptor (setting [2]), 150 nM on gastrin receptor (setting [3]) and 190 nM in data set [1].
`O=C1NN(C(=S)Nc2ccc3ccccc3c2)[C@@H](c2ccccc2)[C@@H]1c1ccccc1` (relative stereo) [Example 136, 1-[(2-Naphthyl)aminothiocarbonyl]-4,5-diphenyl-3-pyrazolidinone]: the pKa in “pKa by titration” is 5.8. In data set [1], this compound gave an IC50 of 160 nM.
With `CC(C)c1ccc(NC(=O)N2NC(=O)C(c3ccccc3Cl)C2c2ccccc2)cc1` (stereo not shown) [Example 132], the figures for the IC50 on brain CCK receptor (setting [2]) and on gastrin receptor (setting [3]) were 8 nM and 70 nM, respectively. For the same compound, in data set [1] (at 10 μM), the inhibition at 10 µM amounted to 48%.
For `CSc1ccc(NC(=O)N2NC(=O)[C@@H](c3ccccc3)[C@@H]2c2ccccc2)cc1` (relative stereo) [Example 38], in that order: 56 nM, 240 nM and 53%.
For `N#Cc1cccc(C2C(c3ccccc3)C(=O)NN2C(=O)Nc2ccc(C(F)(F)F)cc2)c1` (stereo not shown) [Example 111], the IC50 on brain CCK receptor (setting [4]) came to 20 nM; on gastrin receptor, 610 nM. Moreover, the inhibition at 10 µM in data set [1] (at 10 μM) was 35%.
`O=C1NN(C(=O)Nc2ccc(C(F)(F)F)cc2)C(c2ccccc2Cl)C1c1ccccc1` (stereo not shown) [Example 110]: the IC50 was 7 nM on brain CCK receptor (setting [2]) and 130 nM on gastrin receptor (setting [3]). Also, in data set [1] (at 10 μM), the “Pancreas Percent Inhibition” value is listed as 47%.
On to `O=C1NN(C(=O)Nc2ccc3c(c2)CCCC3)[C@H](c2ccccc2)[C@H]1c1ccccc1` (relative stereo) [Example 50], for which the IC50 was 13 nM at brain CCK receptor (setting [2]) and 81 nM at gastrin receptor (setting [3]). The inhibition at 10 µM in data set [1] (at 10 μM) amounted to 87%.
On to `O=C1NN(C(=O)Nc2ccc(Br)cc2)C(c2ccccc2)C1c1cccc(Cl)c1` (stereo not shown) [Example 126], for which the IC50 at brain CCK receptor (setting [2]) came to 11 nM; at gastrin receptor (setting [3]), 210 nM. In addition, in data set [1] (at 10 μM), the inhibition at 10 µM is 59%.
Regarding `O=C1NN(C(=O)Nc2ccc(Br)cc2)C(c2ccccc2)C1c1cccc2ccccc12` (stereo not shown) [Example 134], the IC50 on brain CCK receptor (setting [2]) came to 33 nM; on gastrin receptor (setting [3]), 93 nM. Also, in data set [1] (at 10 μM), the inhibition at 10 µM came out at 75%.
For `O=C1NN(C(=O)NCCc2ccccc2Cl)[C@@H](c2ccccc2)[C@@H]1c1ccccc1` (relative stereo) [Example 106], the IC50 at brain CCK receptor (setting [2]) was 190 nM; on gastrin receptor (setting [3]) it was 870 nM. For the same compound, in data set [1] (at 10 μM), the inhibition at 10 µM came out at 78%.
Taken in the same sequence, the figures for `O=C1NN(C(=O)Nc2ccc(Br)cc2)C(c2ccccc2)C1c1ccc(Cl)cc1` (stereo not shown) [Example 129] were 160 nM, 860 nM and 69%.
Turning to `O=C1NN(C(=O)Nc2ccc(Br)cc2)C(c2cccnc2)C1c1ccccc1` (stereo not shown) [Example 135], the IC50 at brain CCK receptor (setting [2]) was found to be 140 nM; on gastrin receptor (setting [3]) it was 1700 nM. In addition, the inhibition at 10 µM in data set [1] (at 10 μM) is 18%.
